What was measured:
[1] = tested on: wild house mice, Mus musculus; assay: Field experiments with paired trap boxes: trap captures of wild mice; format: in vivo
Source text: Two field experiments were run in parallel from Feb. 4, 2016 to Apr. 14, 2016 in Vancouver B.C. to evaluate the effect of synthetic androstenone (Experiment 7) and of synthetic progesterone and estrogen (Experiment 8) on trap captures of wild mice. Experimental replicates were set up as depicted in FIG. 7 along the interior walls and bird feeder areas of a plant and bird conservatory maintained under tropical conditions. Each replicate consisted of a pair of trap boxes (PROTECTA® Mouse, Bell Laboratories Inc., Madison, Wis. 53704, USA), with 50-cm spacing between boxes in each pair, and at least 2 m between pairs.
In Experiments 7 and 8, each box in each pair contained a snap trap (1) (FIG. 7) that was baited with a food lure (Musso et al. 2014). In Experiment 7, the trap box was also baited with the synthetic two-component sex pheromone of male mice (3,4-dehydro-exo-brevicomin and 2-sec-butyl-4,5-dihydrothiazole). The compounds were formulated in 10 g of mineral oil and dispensed from a custom-made scintillation vial (2) (FIG. 7). Each box in each pair also contained a piece of Whatman #1 filter paper that by random assignment was treated with 4 μg of synthetic androstenone dissolved in 50 μl ether (3a) or 50 μl ether (control; 4). […]
All boxes and snap traps in both experiments were checked every 48 h to 72 h, and test stimuli (food lure, male-specific pheromone blend in mineral oil, filter paper with or without hormones) were replaced at each visit.
Mouse captures in treatment and control traps were compared against an expected 50:50 distribution using χ^2 tests with Yates' correction for continuity (α=0.05). Replicates with captures in both trap boxes of a pair are not included in the graphical illustration and statistical analyses of data.
(§1) Four field experiments were run in Vancouver B.C. to evaluate the effect of synthetic androstenone and synthetic testosterone on captures of female wild mice and rats in combination with species-specific male sex pheromone blend. Experimental replicates were set up along the interior and exterior walls of buildings as depicted in FIG. 7. Experiment 15 evaluated captures of wild mice in trap boxes baited with high-levels of androstenone; Experiment 16 evaluated captures of wild rats in traps baited with high-levels of androstenone; Experiment 17 evaluated captures of wild mice in traps baited with low-levels of testosterone; and Experiment 18 evaluated captures of wild mice in traps baited with low-levels of androstenone. Experiment 15 was run from Feb. 4, 2016 to Apr. 14, 2016. Experiment 16 was run from Feb. 26, 2016 to Sep. 19, 2016. Experiments 17 and 18 were run in parallel from Jun. 2, 2016 to Sep. 8, 2016.
(§2) Each replicate of Experiments 15 to 18 consisted of a pair of trap boxes (Mice: PROTECTA® Mouse, Bell Laboratories Inc., Madison, Wis. 53704, USA; Rats: PROTECTA® Sidekick™; Bell Laboratories Inc., Madison, Wis. 53704), with 50-cm spacing between boxes in each pair, and at least 2 m between pairs. Each trap box contained an armed snap trap (1, Mice: Victor® Easy Set® Mouse Trap; Rats: Victor® Easy Set® Rat Trap; Woodstream Corp, Lititz, Pa. 17543, USA) baited with a cereal-based food bait and a scintillation vial (2) containing synthetic sex pheromone blends. Each box in each pair also contained a treatment stimulus that consisted of a piece of Whatman #1 filter paper (3a) that by random assignment was treated with: 4 μg of synthetic androstenone dissolved in 50 μl ether (Experiments 15 and 16); 750 μg of synthetic testosterone dissolved in 50 μl ether (Experiment 17); or 750 μg of synthetic androstenone dissolved in 50 μl ether (Experiment 18). The corresponding box in each pair contained a control stimulus which consisted of a piece of Whatman #1 filter paper (3b) treated with 50 μl ether. […]

wild rats = assay: Field experiments with paired trap boxes: trap captures of wild rats; format: in vivo, rat; details: Experiment 16, 4 μg synthetic androstenone
Source text: as §1
as §2, with “18).” for “18). The corresponding box in each pair contained a control stimulus which consisted of a piece of Whatman #1 filter paper (3b) treated with 50 μl ether.”
Experiments 19 and 20 evaluated the effect of synthetic blends of progesterone and estradiol (estrogen) on captures of wild mice (Experiment 19) and wild rats (Experiment 20) in the field. […]

[2] = Experiment 17, 750 μg synthetic testosterone (low-levels), with food bait and male mouse sex pheromone blend
[3] = Experiment 7, 4 μg synthetic androstenone, boxes also with food lure and male mouse sex pheromone
[4] = Experiment 15, 4 μg synthetic androstenone, with food bait and male mouse sex pheromone blend

C[C@]12CC[C@H]3[C@@H](CCC4=CC(=O)CC[C@@]43C)[C@@H]1CC[C@@H]2O [testosterone, (8R,9S,10R,13S,14S,17S)-17-hydroxy-10,13-dimethyl-1,2,6,7,8,9,11,12,14,15,16,17-dodecahydrocyclopenta[a]phenanthren-3-one, reference compound]
captures of both adult and juvenile mice ([1]; Experiment 17, 750 μg synthetic testosterone (low-levels)): no significant effect | captures of adult female mice vs control traps [1, 2]: significantly more | captures of juvenile female mice vs control traps [1, 2]: significantly more

C[C@]12CCC(=O)C[C@@H]1CC[C@@H]1[C@@H]2CC[C@]2(C)C=CC[C@@H]12 [androstenone, 5α-androst-16-en-3-one]
captures of juvenile and adult male rats (wild rats): no significant effect | captures of juvenile female rats (wild rats): no significant effect | captures of adult female rats vs control boxes (wild rats; with food bait and male rat sex pheromone blend): significantly more | captures of adult female mice vs control boxes [1, 3]: significantly more | captures of juvenile female mice vs control boxes [1, 3]: significantly more | captures of juvenile and adult male mice ([1]; Experiment 15, 4 μg synthetic androstenone): no significant effect | captures of adult female mice vs control boxes [1, 4]: significantly more | captures of juvenile female mice vs control boxes [1, 4]: significantly more | captures of juvenile and adult male mice ([1]; Experiment 18, 750 μg synthetic androstenone (low-levels)): no significant effect | captures of female mice vs control traps ([1]; Experiment 18, 750 μg synthetic androstenone (low-levels), with food bait and male mouse sex pheromone blend): did not differ statistically

— US11185077B2, “Attractants for rodents” (priority 2016, dated 2021)
